Results as given in publication PMC7869707 (European Journal of Medicinal Chemistry, 2021).

System: wild-type SARS-CoV-2 (wuhan-HU-1 variant)
Format: cell-based

C[C@@H]1O[C@@H](O[C@H]2[C@H](O[C@H]3CC[C@]4(C)[C@H]5CC=C6[C@@H]7CC(C)(C)CC[C@]7(C(=O)NCc7ccccc7)CC[C@@]6(C)[C@]5(C)CC[C@H]4C3(C)C)O[C@H](CO)[C@@H](O[C@@H]3O[C@@H](C)[C@H](O)[C@@H](O)[C@H]3O)[C@@H]2O)[C@H](O)[C@H](O)[C@H]1O [Compound 12f, N-{3β-O-[2,4-di-O-(a-L-rhamnopyranosyl)-β-D-glucopyranosyl]-olean-12-en-28-oyl}-benzylamine]
Inhibition of SARS-CoV-2 infection by IFA, NP expression: dose-dependent manner
